This note sets out measurements from patent US20070269494A1, “Compositions and methods for enhancing active agent absorption” (Nexus Pharma, Inc., priority 2006, published 2007).

The assay has as its system Sprague-Dawley rats. Nature of the assay: Blood glucose depression by intracolonically administered bovine pancreatic insulin with absorption enhancer. Type of assay: in vivo. Particulars: for Blood glucose as % of basal level: enhancer 0 mg/kg (insulin without enhancer), intracolonic, rats. On the procedure: It is neutralized by 1 equivalent of sodium hydroxide. The pH is adjusted to 7-8 by 1N HCl and saturated sodium bicarbonate. Bovine pancreatic insulin (1.75 mL; Sigma, 10 mg/mL; in pH 8.2 HEPES buffer) is added and mixed by gentle swirling. The solution density is determined so that the required dose may be calculated.
The solution is then given to Sprague-Dawley rats (female, 250-300 g, n=3), intracolonically. Blood samples are taken from the tail vein and glucose levels measured using an OneTouch® UltraSmart® blood glucose meter.
As insulin reduces glucose levels in the blood, a depression in glucose levels indicates insulin reaching the blood efficaciously.

As to `COC(=O)c1ccc(NC(=O)CCC(=O)O)cc1O` [Example 20, methyl 4-(3-carboxy-propionylamino)], the “50% depression at 60 min. (blood glucose from basal level)” value (enhancer dose 200 mg/Kg, insulin 7 mg/Kg, procedure of Example 12) is “negative (a 50% reduction in glucose levels was not reached in 60 minutes)”.
For the compound “bovine pancreatic insulin: Bovine pancreatic insulin (Sigma, 10 mg/mL; in pH 8.2 HEPES buffer), the active agent co-administered”, the “Blood glucose as % of basal level” value turned out to be 100% (0 min); 94 ± 4% (30 min); 102 ± 7% (60 min); 105 ± 3% (90 min); 107 ± 7% (120 min); 94 ± 7% (150 min). The “Blood glucose as % of basal level” value by setting is: (180 min) 111 ± 7%; (210 min) 113 ± 4%; (240 min) 100 ± 7%.
